In patent US8859559B2, “Substituted pyrazines and their use in the treatment of disease” (Boehringer Ingelheim International GmbH, priority 2011, dated 2014):

target: T1, ENaC (Epithelial Sodium Channel) (Mus musculus, UniProt Q61180+Q9WU38+Q9WU39); assay: Ussing chamber: inhibition of amiloride sensitive short circuit current (I_sc) in M-1 cells; type: cell-based; conditions: mouse kidney M-1 cells
T1 construct: Mouse kidney M-1 cells were cultivated in DMEM; endogenous in cells; host or cells: Mouse kidney M-1 cells (dexamethasone-treated, on transwell filters)
T1 sequence (Q61180 1-699): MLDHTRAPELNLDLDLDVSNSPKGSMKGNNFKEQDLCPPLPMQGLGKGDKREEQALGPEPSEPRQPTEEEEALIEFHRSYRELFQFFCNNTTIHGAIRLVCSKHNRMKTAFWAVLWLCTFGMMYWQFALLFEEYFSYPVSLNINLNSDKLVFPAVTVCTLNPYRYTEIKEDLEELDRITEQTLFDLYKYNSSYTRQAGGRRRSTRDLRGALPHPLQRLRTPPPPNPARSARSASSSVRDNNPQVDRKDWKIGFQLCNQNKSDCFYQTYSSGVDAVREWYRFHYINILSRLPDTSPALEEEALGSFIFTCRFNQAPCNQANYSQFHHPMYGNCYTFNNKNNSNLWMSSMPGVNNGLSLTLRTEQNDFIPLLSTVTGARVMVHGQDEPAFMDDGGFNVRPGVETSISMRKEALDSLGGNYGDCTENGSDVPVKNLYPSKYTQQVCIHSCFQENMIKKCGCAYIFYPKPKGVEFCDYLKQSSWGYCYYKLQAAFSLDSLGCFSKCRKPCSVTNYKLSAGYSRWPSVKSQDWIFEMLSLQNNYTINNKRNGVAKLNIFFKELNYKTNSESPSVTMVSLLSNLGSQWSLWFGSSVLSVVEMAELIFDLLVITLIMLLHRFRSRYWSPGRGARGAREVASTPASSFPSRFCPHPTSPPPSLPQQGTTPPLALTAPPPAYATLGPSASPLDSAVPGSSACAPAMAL
T1 sequence (Q9WU38 1-638): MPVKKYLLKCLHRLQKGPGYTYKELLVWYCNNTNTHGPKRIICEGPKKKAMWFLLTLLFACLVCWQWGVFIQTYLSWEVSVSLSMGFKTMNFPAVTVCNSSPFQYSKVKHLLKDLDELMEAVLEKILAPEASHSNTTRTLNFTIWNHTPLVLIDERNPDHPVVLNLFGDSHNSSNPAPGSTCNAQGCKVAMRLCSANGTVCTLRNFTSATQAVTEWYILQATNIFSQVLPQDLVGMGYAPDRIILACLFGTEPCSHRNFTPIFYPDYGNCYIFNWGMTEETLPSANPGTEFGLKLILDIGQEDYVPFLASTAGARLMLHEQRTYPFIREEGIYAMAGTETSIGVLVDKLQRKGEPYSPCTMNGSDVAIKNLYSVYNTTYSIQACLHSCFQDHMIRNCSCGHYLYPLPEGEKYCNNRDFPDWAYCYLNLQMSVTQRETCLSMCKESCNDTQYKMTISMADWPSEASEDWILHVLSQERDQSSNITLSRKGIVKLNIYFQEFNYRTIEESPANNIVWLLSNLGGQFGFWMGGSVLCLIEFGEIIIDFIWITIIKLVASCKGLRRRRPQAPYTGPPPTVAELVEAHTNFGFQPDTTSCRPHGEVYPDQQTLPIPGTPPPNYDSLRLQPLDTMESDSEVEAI
T1 sequence (Q9WU39 1-655): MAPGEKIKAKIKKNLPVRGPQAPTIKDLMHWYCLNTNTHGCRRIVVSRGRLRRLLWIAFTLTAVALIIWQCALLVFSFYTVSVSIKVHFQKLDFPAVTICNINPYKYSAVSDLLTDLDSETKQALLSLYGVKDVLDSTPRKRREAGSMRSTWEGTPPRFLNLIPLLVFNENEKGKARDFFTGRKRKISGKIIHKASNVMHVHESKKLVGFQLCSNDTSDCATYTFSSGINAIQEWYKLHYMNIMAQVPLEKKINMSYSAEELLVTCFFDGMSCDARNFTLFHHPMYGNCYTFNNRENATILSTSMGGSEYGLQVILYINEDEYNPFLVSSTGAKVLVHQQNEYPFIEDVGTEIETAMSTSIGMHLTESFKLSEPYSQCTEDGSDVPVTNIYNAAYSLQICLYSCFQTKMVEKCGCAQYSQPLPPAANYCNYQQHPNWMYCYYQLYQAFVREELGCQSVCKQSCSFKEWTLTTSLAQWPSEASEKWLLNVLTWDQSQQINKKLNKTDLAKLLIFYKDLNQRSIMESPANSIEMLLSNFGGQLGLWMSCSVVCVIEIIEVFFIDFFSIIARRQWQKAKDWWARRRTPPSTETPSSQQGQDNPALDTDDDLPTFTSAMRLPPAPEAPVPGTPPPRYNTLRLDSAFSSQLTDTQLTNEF
Procedure: Mouse kidney M-1 cells were cultivated in DMEM containing 5% FCS and 5 μM dexamethasone for 10 to 12 days on polyester transwell filters. Filters were inserted into a teflon-coated well-plate which fit into the in-house ussing chamber system. Prior to measurement the medium of M-1 cells was replaced with Caco-2 transport buffer (Invitrogen, Germany). During measurements, the Ussing chamber temperature was kept at 37° C. Short circuit currents (I_sc) were measured in the voltage-clamp mode using an in-house built amplifier (Boehringer Ingelheim, Biberach) with the software package Lab View for data acquisition and analysis. The transepithelial electrical resistance (TEER) was determined by the application of voltage steps of ±5 mV every 5 sec. Compounds were administered at a final concentration of 3 μM or at increasing concentrations (1-3-10 μM) to the apical solution. At the end of each experiment the amiloride sensitive I_SC was measured by adding 3 μM amiloride to the apical compartment. Results are expressed as inhibition in percent of the amiloride effect or as IC50. With the example compounds given above, the following IC50 values were determined in the Ussing Chamber assay: […]

IC50 [nM]	SMILES
1	CN(Cc1cn(-c2ccc(CN3CCC(NC(N)=NC(=O)c4nc(Cl)c(N)nc4N)CC3)cc2)nn1)C(=O)CCNCCOCCOCCOCCOC(c1ccccc1)(c1ccccc1)c1ccccc1 [Example 3.20]
39	NC(=NC(=O)c1nc(Cl)c(N)nc1N)NC1CCN(Cc2ccc(Cn3cc(C(=O)O)ccc3=O)cc2)CC1 [Example 8.12]
3	CC(C)(C)[Si](C)(C)OCCN(CCO[Si](C)(C)C(C)(C)C)C(=O)c1ccc(=O)n(CCc2cn(-c3ccc(CN4CCC(NC(N)=NC(=O)c5nc(Cl)c(N)nc5N)CC4)cc3)nn2)c1 [Example 3.17]
10	NC(=NC(=O)c1nc(Cl)c(N)nc1N)NC1CCN(Cc2ccc(C(=O)OCCCCc3cn(CCOCCOCCOCCO)nn3)cc2)CC1 [Example 3.42]
35	NC(=NC(=O)c1nc(Cl)c(N)nc1N)NC1CCN(Cc2ccc(C(=O)NCCS(=O)(=O)O)cc2)CC1 [Example 2.4]
86	N/C(=N\C(=O)c1nc(Cl)c(N)nc1N)NC1CCN(Cc2ccc(OCC(=O)O)cc2)CC1 [Example 8.8]
53	NC(=NC(=O)c1nc(Cl)c(N)nc1N)NC1CCN(Cc2cc(C(=O)O)cc(C(=O)NCCOCCO)c2)CC1 [Example 8.6]
20	NC(=NC(=O)c1nc(Cl)c(N)nc1N)NC1CCN(Cc2ccc(C(=O)NCCOCCOCCOCCn3cc(COC[B-](F)(F)F)nn3)cc2)CC1 [Example 3.9]
3	NC(=NC(=O)c1nc(Cl)c(N)nc1N)NC1CCN(Cc2ccc(-c3cn(CCOCCO)nn3)cc2)CC1 [Example 5.6]
13	NC(=NC(=O)c1nc(Cl)c(N)nc1N)NC1CCN(Cc2ccc(OCc3cn(CCOCCOCCOCCOCCOCCOC(c4ccccc4)(c4ccccc4)c4ccccc4)nn3)cc2)CC1 [Example 3.23]
7	CN(Cc1cn(CCc2ccc(CN3CCC(NC(N)=NC(=O)c4nc(Cl)c(N)nc4N)CC3)cc2)nn1)C(=O)CCNC(=O)OC(C)(C)C [Example 3.5]
37	NC(=NC(=O)c1nc(Cl)c(N)nc1N)NC1CCN(Cc2cccc(OCC(=O)O)c2)CC1 [Example 8.15]
9	NC(=NC(=O)c1nc(Cl)c(N)nc1N)NC1CCN(Cc2cccc(-c3cn(CCOCCOCCOCCOCCOCCOC(c4ccccc4)(c4ccccc4)c4ccccc4)nn3)c2)CC1 [Example 3.37]
31	NC(=NC(=O)c1nc(Cl)c(N)nc1N)NC1CCN(Cc2cccc(-c3cn(CCOCCOCCOCCNC(=O)c4cc(OCCOCCOCCO)cc(OCCOCCOCCO)c4)nn3)c2)CC1 [Example 5.10]
4	CN(Cc1cn(-c2ccc(CN3CCC(NC(N)=NC(=O)c4nc(Cl)c(N)nc4N)CC3)cc2)nn1)C(=O)CCN [Example 4.2]
1	NC(=NC(=O)c1nc(Cl)c(N)nc1N)NC1CCN(Cc2cccc(-c3cn(CCOCCOCCOCCNCCOCCOCCOC(c4ccccc4)(c4ccccc4)c4ccccc4)nn3)c2)CC1 [Example 3.40]
5	CN(Cc1cn(-c2ccc(CN3CCC(NC(N)=NC(=O)c4nc(Cl)c(N)nc4N)CC3)cc2)nn1)C(=O)CCNC(=O)OC(C)(C)C [Example 3.18]
1	NC(=NC(=O)c1nc(Cl)c(N)nc1N)NC1CCN(Cc2ccc(-c3cn(CCOCCOC(c4ccccc4)(c4ccccc4)c4ccccc4)nn3)cc2)CC1 [Example 3.30]
6	CN(C)CCNC(=O)Cc1ccc(CN2CCC(NC(N)=NC(=O)c3nc(Cl)c(N)nc3N)CC2)cc1 [Example 2.5]
6	NC(=NC(=O)c1nc(Cl)c(N)nc1N)NC1CCN(Cc2ccc(-c3cn(CCOCCOCCOC(c4ccccc4)(c4ccccc4)c4ccccc4)nn3)cc2)CC1 [Example 3.28]
16	CC(=O)N1CCN(C(=O)CCc2cn(CCc3ccc(CN4CCC(NC(N)=NC(=O)c5nc(Cl)c(N)nc5N)CC4)cc3)nn2)CC1 [Example 3.44]
2	CN(Cc1cn(-c2ccc(CN3CCC(NC(N)=NC(=O)c4nc(Cl)c(N)nc4N)CC3)cc2)nn1)C(=O)CCNCCOCCOCCOCCO [Example 5.3]

The remaining lines, values behind:

SMILES	IC50 [nM]
C#CCOc1ccc(CN2CCC(NC(N)=NC(=O)c3nc(Cl)c(N)nc3N)CC2)cc1 [Example 1.4]	4
COC(=O)COc1ccc(CN2CC(NC(N)=NC(=O)c3nc(Cl)c(N)nc3N)C2)cc1 [Example 1.66]	261
N/C(=N\C(=O)c1nc(Cl)c(N)nc1N)NC1CCN(Cc2ccc(C(=O)O)cc2)CC1 [Example 1.51]	23
C#Cc1ccc(CN2CCC(NC(N)=NC(=O)c3nc(Cl)c(N)nc3N)CC2)cc1 [Example 1.50]	5
NC(=NC(=O)c1nc(Cl)c(N)nc1N)NC1CCN(Cc2ccccc2)C1 (centres unmarked) [Example 1.26]	20
CCOP(=O)(OCC)c1ccc(CN2CCC(NC(N)=NC(=O)c3nc(Cl)c(N)nc3N)CC2)cc1 [Example 1.13]	5
COC(=O)Cc1ccc(CN2CCC(NC(N)=NC(=O)c3nc(Cl)c(N)nc3N)CC2)cc1 [Example 1.38]	8
COC(=O)c1ccc(CN2CCC(N/C(N)=N/C(=O)c3nc(Cl)c(N)nc3N)CC2)cc1 [Example 1.29]	2
NC(=NC(=O)c1nc(Cl)c(N)nc1N)NC1CCCN(Cc2ccccc2)CC1 (centres unmarked) [Example 1.22]	14
C#Cc1cccc(CN2CCC(NC(N)=NC(=O)c3nc(Cl)c(N)nc3N)CC2)c1 [Example 1.32]	7
NCCOCCOCCNC(=O)c1ccc(CN2CCC(NC(N)=NC(=O)c3nc(Cl)c(N)nc3N)CC2)cc1 [Example 1.47]	3
NC(=NC(=O)c1nc(Cl)c(N)nc1N)NC1CCN(Cc2ccc(CCc3cccnc3)cc2)CC1 [Example 1.57]	5
CC(=O)Oc1ccc(CN2CCC(N/C(N)=N/C(=O)c3nc(Cl)c(N)nc3N)CC2)cc1 [Example 1.41]	7
COC(=O)COc1ccc(CN2CC[C@H](NC(N)=NC(=O)c3nc(Cl)c(N)nc3N)C2)cc1 [Example 1.42]	59
CCOP(=O)(Cc1ccc(CN2CCC(NC(N)=NC(=O)c3nc(Cl)c(N)nc3N)CC2)cc1)OCC [Example 1.8]	10
NC(=NC(=O)c1nc(Cl)c(N)nc1N)NC1CCN(Cc2ccc(C(=O)NCCc3cccnc3)cc2)CC1 [Example 1.24]	3
NC(=NC(=O)c1nc(Cl)c(N)nc1N)NC1CC2CCC(C1)N2Cc1ccccc1 (single isomer, unassigned) [Example 1.28]	16
COC(=O)COc1cccc(CN2CCC(NC(N)=NC(=O)c3nc(Cl)c(N)nc3N)CC2)c1 [Example 1.44]	20
COC(=O)COc1ccc(CN2CC[C@@H](NC(N)=NC(=O)c3nc(Cl)c(N)nc3N)C2)cc1 [Example 1.46]	73
